Results published in PubChem BioAssay (NCI).
“And” between values parts separate entries of the source, which are not always exact repeats. Identical values can stand only once.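 Where inhibition never reached the appropriate level, the endpoint shown equals the highest concentration tested. Otherwise, values were interpolated linearly from a five-concentration, 48-hour dose response in 96-well plates. GI50: concentration for 50% inhibition of growth. TGI: total growth inhibition.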

Columns and labels:
Assay in all cases: NCI-60 cell line screen, 48 h
COLO 205 colon = tested on: COLO 205 colon
DU-145 prostate = tested on: DU-145 prostate
EKVX NSCLC = tested on: EKVX NSCLC
HCT-15 colon = tested on: HCT-15 colon
MDA-MB-435 = tested on: MDA-MB-435
NCI-H460 lung = tested on: NCI-H460 lung
SF-539 CNS = tested on: SF-539 CNS
SK-MEL-2 melanoma = tested on: SK-MEL-2 melanoma
SK-MEL-5 melanoma = tested on: SK-MEL-5 melanoma
SW-620 colon = tested on: SW-620 colon

Row | Structure (SMILES) | GI50 (COLO 205 colon) | TGI (COLO 205 colon) | GI50 (DU-145 prostate) | TGI (DU-145 prostate) | GI50 (EKVX NSCLC) | TGI (EKVX NSCLC) | GI50 (HCT-15 colon) | TGI (HCT-15 colon) | GI50 (MDA-MB-435) | TGI (MDA-MB-435) | GI50 (NCI-H460 lung) | TGI (NCI-H460 lung) | GI50 (SF-539 CNS) | TGI (SF-539 CNS) | GI50 (SK-MEL-2 melanoma) | TGI (SK-MEL-2 melanoma) | GI50 (SK-MEL-5 melanoma) | TGI (SK-MEL-5 melanoma) | GI50 (SW-620 colon) | TGI (SW-620 colon)
1 | Nc1ncnc2c1c(C(F)(F)F)cn2[C@@H]1O[C@H](CO)[C@@H](O)[C@H]1O | 0.0731 µM | 1.4 µM | 0.0945 µM | > 100 µM | 1.23 µM | > 27.3 µM | 0.197 µM | > 100 µM | 0.066 µM | 2.08 µM | 0.262 µM | > 43.6 µM | 0.642 µM | 2.73 µM | 0.953 µM | 2.79 µM | 0.402 µM | 5.02 µM | 0.0644 µM | > 100 µM
2 | Cc1ccc(Cl)cc1Nc1nc(C(F)(F)F)ccc1C(=O)Nc1cccc(C(F)(F)F)c1 | 1.72 µM | 3.36 µM | 4.76 µM | 16.6 µM | 2.7 µM | 10.9 µM | 3.67 µM | 14.9 µM | 3.61 µM | 13.9 µM | 2.79 µM | 10.1 µM | 3.95 µM | 14.1 µM | 2.45 µM | 6.58 µM | 2.18 µM | 4.5 µM | 4.55 µM | 19.1 µM
3 | CCCS(=O)(=O)Nc1ccc(F)c(C(=O)c2c[nH]c3ncc(-c4ccc(Cl)cc4)cc23)c1F | 0.0487 µM and 0.0423 µM | 11.2 µM and > 5.32 µM | 5.62 µM and 7.49 µM | 19.7 µM and > 10 µM | 6.86 µM and > 10 µM | 40.7 µM and > 10 µM | 4.45 µM and 4.1 µM | 17.7 µM and > 10 µM | 0.107 µM and 0.153 µM | 8.86 µM and > 10 µM | 3.01 µM and 5 µM | 14 µM and > 10 µM | 3.91 µM and 4.51 µM | 17.1 µM and > 10 µM | 4.11 µM and 3.65 µM | 14.7 µM and > 10 µM | 0.471 µM and 1.85 µM | 13.6 µM and > 10 µM | 10 µM and > 8.98 µM | 27.3 µM and > 10 µM
4 | CC[C@@]1(O)C(=O)NCc2c1cc1n(c2=O)Cc2cc3ccccc3nc2-1 | 39.2 µM | > 100 µM | 2.28 µM | > 45.8 µM | > 47.9 µM | > 100 µM | 25.8 µM | > 100 µM | 10.9 µM | > 100 µM | 0.556 µM | > 59.2 µM | 1.71 µM | 11 µM | > 100 µM | > 100 µM | 2.77 µM | 18.7 µM | 3.39 µM | > 100 µM
5 | COc1ccc(-c2oc(=O)ccc2C#Cc2cc(OC)c(OC)c(OC)c2)cc1O | 89.5 µM | > 100 µM | 38.6 µM | > 100 µM | 66.7 µM | > 100 µM | 26.3 µM | > 100 µM | 11.5 µM | 81.7 µM | 15.7 µM | 62.9 µM | 20 µM | 86.2 µM | 28 µM | > 100 µM | 7.55 µM | 26.6 µM | 31.1 µM | > 100 µM
6 | CN1/C(=C\C(I)C(I)C2=[N+](C)c3ccccc3C2(C)C)C(C)(C)c2ccccc21 (stereo not given) | 0.21 µM | 0.733 µM | 0.386 µM | > 56.7 µM | 0.369 µM | 36.7 µM | 0.997 µM | > 37.6 µM | 0.26 µM | 11.6 µM | 0.205 µM | 10.7 µM | 0.783 µM | 23.6 µM | 0.39 µM | 2.75 µM | 0.126 µM | 0.528 µM | 0.333 µM | 17 µM
